From patent US20240002344A1, “COMPOUNDS, COMPOSITIONS AND METHODS FOR HISTONE LYSINE DEMETHYLASE INHIBITION” (FibroGen, Inc., priority 2020, published 2024)

Tests used:
recombinant human KDM4A = target: T1, recombinant human KDM4A (Homo sapiens, UniProt O75164); assay: 14CO2 capture enzymatic assay (decarboxylation of [1-14C] αKG), KDM4A; format: biochemical; conditions: 10 μM [1-14C] αKG, 90 μM non-labeled αKG, 50 μM peptide substrate, 37° C., 1 hour, final 1% DMSO
T1 construct: made in house
T1 sequence (O75164 1-359 limits assumed): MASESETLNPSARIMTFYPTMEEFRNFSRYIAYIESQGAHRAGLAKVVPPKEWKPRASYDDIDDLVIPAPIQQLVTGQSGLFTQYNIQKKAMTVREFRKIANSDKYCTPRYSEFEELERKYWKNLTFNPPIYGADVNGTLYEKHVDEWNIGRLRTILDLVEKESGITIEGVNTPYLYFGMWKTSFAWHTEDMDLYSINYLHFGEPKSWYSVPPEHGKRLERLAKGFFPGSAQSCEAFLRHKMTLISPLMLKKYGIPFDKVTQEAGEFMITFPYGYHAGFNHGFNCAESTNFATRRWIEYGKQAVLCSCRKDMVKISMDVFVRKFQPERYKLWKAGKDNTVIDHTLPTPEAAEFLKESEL
Procedure, shortened: (§1)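 Truncated recombinant human KDM5B (H3K4me3 peptide) or KDM4A (H3K9me3 peptide), 50 μM peptide, with 10 μM [1-14C]αKG plus 90 μM unlabeled αKG, 10 μM Fe(SO4), 2 mM ascorbate in pH 7.4 HEPES, 1 h at 37 °C, 1% DMSO. Released 14CO2 trapped on Ba(OH)2 filter; IC50 by non-linear fit.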

recombinant human KDM5B = target: T2, recombinant human KDM5B (Homo sapiens, UniProt Q9UGL1); assay: 14CO2 capture enzymatic assay (decarboxylation of [1-14C] αKG), KDM5B; format: biochemical; conditions: 10 μM [1-14C] αKG, 90 μM non-labeled αKG, 50 μM peptide substrate, 37° C., 1 hour, final 1% DMSO
T2 sequence (Q9UGL1 374-755 limits assumed): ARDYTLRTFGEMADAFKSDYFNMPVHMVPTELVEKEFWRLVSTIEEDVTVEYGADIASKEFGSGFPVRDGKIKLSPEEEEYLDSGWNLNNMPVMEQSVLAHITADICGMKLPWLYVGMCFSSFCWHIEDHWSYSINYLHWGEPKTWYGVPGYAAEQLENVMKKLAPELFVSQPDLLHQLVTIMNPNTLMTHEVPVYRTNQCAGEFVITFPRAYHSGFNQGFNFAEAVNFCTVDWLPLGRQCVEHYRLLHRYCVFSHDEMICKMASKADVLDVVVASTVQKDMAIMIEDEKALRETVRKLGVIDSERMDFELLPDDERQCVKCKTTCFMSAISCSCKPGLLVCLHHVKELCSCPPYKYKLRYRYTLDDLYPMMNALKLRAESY
Procedure, shortened: as §1

IC50 (recombinant human KDM4A) [µM] | IC50 (recombinant human KDM5B) [nM] | Structure (SMILES)
> 40 | 80 | N#Cc1cc(Cc2c(Cl)cccc2Cl)cc(C(=O)CCC(=O)O)c1O [Example 121, 4-[3-Cyano-5-(2,6-dichloro-benzyl)-2-hydroxy-phenyl]-4-oxo-butyric acid]
> 40 | 230 | Cc1cccc(C)c1Cc1cc(C#N)c(O)c(C(=O)CCC(=O)O)c1 [Example 122, 4-[3-Cyano-5-(2,6-dimethyl-benzyl)-2-hydroxy-phenyl]-4-oxo-butyric acid]
3 | 120 | Cc1cccc(Cl)c1Cc1cc(C#N)c(O)c(C(=O)CCC(=O)O)n1 [Example 123, 4-[6-(2-Chloro-6-methyl-benzyl)-4-cyano-3-hydroxy-pyridin-2-yl]-4-oxo-butyric acid]
> 40 | 160 | Cc1cc(C)c(Cc2cc(C#N)c(O)c(C(=O)CCC(=O)O)n2)c(C)c1 [Example 124, 4-[4-Cyano-3-hydroxy-6-(2,4,6-trimethyl-benzyl)-pyridin-2-yl]-4-oxo-butyric acid]
13 | 80 | COc1cccc(Cl)c1Cc1cc(C#N)c(O)c(C(=O)CCC(=O)O)n1 [Example 125, 4-[6-(2-Chloro-6-methoxy-benzyl)-4-cyano-3-hydroxy-pyridin-2-yl]-4-oxo-butyric acid]
2.9 | 70 | N#Cc1cc(Cc2c(Cl)cc(F)cc2Cl)nc(C(=O)CCC(=O)O)c1O [Example 126, 4-[4-Cyano-6-(2,6-dichloro-4-fluoro-benzyl)-3-hydroxy-pyridin-2-yl]-4-oxo-butyric acid]
> 40 | 60 | Cc1cc(Cl)c(Cc2cc(C#N)c(O)c(C(=O)CCC(=O)O)n2)c(Cl)c1 [Example 127, 4-[4-Cyano-6-(2,6-dichloro-4-methyl-benzyl)-3-hydroxy-pyridin-2-yl]-4-oxo-butyric acid]
> 40 | 380 | N#Cc1cc(NC(=O)c2c(Cl)cccc2Cl)nc(C(=O)CCC(=O)O)c1O [Example 128, 4-[4-Cyano-6-(2,6-dichloro-benzoylamino)-3-hydroxy-pyridin-2-yl]-4-oxo-butyric acid]
> 40 | 560 | Cc1cccc(C)c1C(=O)Nc1cc(C#N)c(O)c(C(=O)CCC(=O)O)n1 [Example 129, 4-[4-Cyano-6-(2,6-dimethyl-benzoylamino)-3-hydroxy-pyridin-2-yl]-4-oxo-butyric acid]
> 40 | 3200 | Cc1cccc(C)c1C(=O)N(C)c1cc(C#N)c(O)c(C(=O)CCC(=O)O)n1 [Example 130, 4-{4-Cyano-6-[(2,6-dimethyl-benzoyl)-N-methyl-amino]-3-hydroxy-pyridin-2-yl}-4-oxo-butyric acid]
> 40 | 50 | N#Cc1cc(Cc2c(Cl)cc(Cl)cc2Cl)cc(C(=O)CCC(=O)O)c1O [Example 131, 4-[3-Cyano-2-hydroxy-5-(2,4,6-trichloro-benzyl)-phenyl]-4-oxo-butyric acid]
> 40 | 310 | N#Cc1cc(Oc2ccccc2)cc(C(=O)CCC(=O)O)c1O [Example 132, 4-(3-Cyano-2-hydroxy-5-phenoxy-phenyl)-4-oxo-butyric acid]
> 40 | 1400 | Cc1cccc(C)c1Cc1cc(C(=O)CCC(=O)O)c(O)c(C#N)n1 [Example 133, 4-[2-Cyano-6-(2,6-dimethyl-benzyl)-3-hydroxy-pyridin-4-yl]-4-oxo-butyric acid]
> 40 | 120 | N#Cc1cc(Cc2c(Cl)ccc(F)c2Cl)cc(C(=O)CCC(=O)O)c1O [Example 134, 4-[3-Cyano-5-(2,6-dichloro-3-fluoro-benzyl)-2-hydroxy-phenyl]-4-oxo-butyric acid]
> 40 | 370 | N#Cc1cc(CCc2ccccc2)cc(C(=O)CCC(=O)O)c1O [Example 135, 4-(3-Cyano-2-hydroxy-5-phenethyl-phenyl)-4-oxo-butyric acid]
